Patent US5840684A, “Glycopeptide antibiotic derivatives” (Eli Lilly and Company, priority 1995, dated 1998)
In brackets after ≈: the same amount, converted by molar mass. Read-outs that look alike come from different tables or passages of the source.

Legend:
Streptococcus pyogenes = assay: mouse protection, experimentally-induced infection; format: in vivo; settings: mice infected with Streptococcus pyogenes, two doses
[1] = tested on: Staphylococcus aureus SA1199B; format: cell-based
Procedure: (§1) The MIC's were determined using a standard broth micro-dilution assay.

[2] = tested on: Staphylococcus aureus S13E; format: cell-based
Procedure: as §1

[3] = tested on: Staphylococcus aureus 446; assay: broth micro-dilution MIC; format: cell-based
Procedure: as §1

[4] = tested on: Entercoccus faecium 180-1; assay: broth micro-dilution MIC; format: cell-based
Procedure: as §1

[5] = tested on: Staphylococcus aureus X400; assay: broth micro-dilution MIC; format: cell-based
Procedure: as §1

[6] = tested on: Staphylococcus aureus SA1199A; assay: broth micro-dilution MIC; format: cell-based
Procedure: as §1

[7] = tested on: Staphylococcus aureus 447; assay: broth micro-dilution MIC; format: cell-based
Procedure: as §1

[8] = tested on: Staphylococcus aureus X778; assay: broth micro-dilution MIC; format: cell-based
Procedure: as §1

[9] = tested on: Staphylococcus aureus SA1199; assay: broth micro-dilution MIC; format: cell-based
Procedure: as §1

Entercoccus faecium 276 = assay: broth micro-dilution MIC; format: cell-based
Procedure: as §1

[10] = tested on: Staphylococcus aureus 491; assay: broth micro-dilution MIC; format: cell-based
Procedure: as §1

[11] = tested on: Staphylococcus aureus 489; assay: broth micro-dilution MIC; format: cell-based
Procedure: as §1

[12] = tested on: Streptococcus pyogenes C203; assay: broth micro-dilution MIC; format: cell-based
Procedure: as §1

Pediococcus acidilacti = assay: agar dilution MIC, lactic acid bacteria; format: cell-based
[13] = tested on: vancomycin-susceptible enterococci; assay: broth micro-dilution, mean geometric MIC; format: cell-based, Enterococcus faecium and Enterococcus faecalis; settings: for mean geometric MIC, Vancomycin Sensitive Strains: enterococci, 24-hour incubation
Lactobacillus confusus = assay: agar dilution MIC, lactic acid bacteria; format: cell-based
Stapylococcus aureus = assay: mouse protection, experimentally-induced infection; format: in vivo; settings: mice infected with Stapylococcus aureus, two doses
Entercoccus faecium 180 = assay: broth micro-dilution MIC; format: cell-based
Procedure: (§2) The formula I compounds have in vitro and in vivo activity against Gram-positive pathogenic bacteria. The MIC's were determined using a standard broth micro-dilution assay.

Entercoccus faecium 2041 = assay: broth micro-dilution MIC; format: cell-based
Procedure: as §2

Escherichia coli EC14 = assay: broth micro-dilution MIC; format: cell-based
Procedure: as §2

[14] = tested on: Enterococcus gallinarum 245; assay: broth micro-dilution MIC; format: cell-based
Procedure: as §2

[15] = tested on: Staphylococcus haemolyticus 415; assay: broth micro-dilution MIC; format: cell-based
Procedure: as §2

[16] = tested on: Streptococcus pneumoniae P1; assay: broth micro-dilution MIC; format: cell-based
Procedure: as §2

[17] = tested on: Staphylococcus epidermidis 270; assay: broth micro-dilution MIC; format: cell-based
Procedure: as §2

[18] = tested on: Staphylococcus haemolyticus 105; assay: broth micro-dilution MIC; format: cell-based
Procedure: as §2

Leuconostoc citreum = assay: agar dilution MIC, lactic acid bacteria; format: cell-based
Pediococcus pentosaceus = assay: agar dilution MIC, lactic acid bacteria; format: cell-based
Streptococcus pneumoniae = assay: mouse protection, experimentally-induced infection; format: in vivo; settings: mice infected with Streptococcus pneumoniae, two doses
[19] = tested on: vancomycin-resistant enterococci; assay: broth micro-dilution, mean geometric MIC; format: cell-based, Enterococcus faecium and Enterococcus faecalis; settings: for mean geometric MIC, Vancomycin Resistant Strains: enterococci, 24-hour incubation
Leuconostoc lactis = assay: agar dilution MIC, lactic acid bacteria; format: cell-based
[20] = tested on: Leuconostoc pseudomesenteroides; assay: agar dilution MIC, lactic acid bacteria; format: cell-based
[21] = tested on: Leuconostoc mesenteroides; assay: agar dilution MIC, lactic acid bacteria; format: cell-based
[22] = tested on: Haemophilus influenzae RD; assay: broth micro-dilution MIC; format: cell-based; settings: Haemophilus influenzae
Procedure: as §2

[23] = Pediococcus acidilacti (mean of 10), brain-heart infusion agar
[24] = Lactobacillus confusus, brain-heart infusion agar
[25] = Pediococcus pentosaceus (mean of 2), brain-heart infusion agar
[26] = Leuconostoc lactis (mean of 2), brain-heart infusion agar
[27] = Leuconostoc mesenteroides (mean of 4), brain-heart infusion agar

Compound | ED50 (Streptococcus pyogenes) [mg/kg/2] | MIC [1] [µg/mL] | MIC [2] [µg/mL] | MIC [3] [µg/mL] | MIC [4] [µg/mL] | MIC [6] [µg/mL] | MIC [7] [µg/mL] | MIC [8] [µg/mL] | MIC [9] [µg/mL] | MIC (Entercoccus faecium 276) [µg/mL] | MIC [10] [µg/mL] | MIC [11] [µg/mL] | MIC [12] [µg/mL] | MIC (Pediococcus acidilacti; [23]) [µg/mL] | ED50 (Stapylococcus aureus) [mg/kg/2] | MIC (Escherichia coli EC14) [µg/mL] | MIC [15] [µg/mL] | MIC [16] [µg/mL] | MIC [18] [µg/mL] | ED50 (Streptococcus pneumoniae) [mg/kg/2] | also measured
CNC(CC(C)C)C(=O)NC1C(=O)NC(CC(N)=O)C(=O)NC2C(=O)NC3C(=O)NC(C(=O)NC(C(=O)O)c4cc(O)cc(O)c4-c4cc3ccc4O)C(OC3CC(C)(N)C(O)C(C)O3)c3ccc(c(Cl)c3)Oc3cc2cc(c3OC2OC(CO)C(O)C(O)C2OC2CC(C)(NCc3ccc(Oc4ccccc4)cc3)C(O)C(C)O2)Oc2ccc(cc2Cl)C1O (centres unmarked) [Compound 4, p-phenoxybenzyl·A82846B] | 0.012 | ≤ 0.06 | ≤ 0.06 | ≤ 0.06 | ≤ 0.06 | ≤ 0.06 | 0.25 (≈ 0.141 µM) | ≤ 0.06 | ≤ 0.06 | ≤ 0.06 | ≤ 0.06 | ≤ 0.06 | ≤ 0.06 | 7.5 (≈ 4.23 µM) | 0.36 | > 64 | 0.5 (≈ 0.282 µM) | ≤ 0.06 | 0.5 (≈ 0.282 µM) | 0.036 | MIC [5]: ≤ 0.06 µg/mL; mean geometric MIC, Vancomycin Sensitive Strains [13]: 0.062 µg/mL; MIC (Lactobacillus confusus; [24]): 32 µg/mL (≈ 18 µM); MIC (Entercoccus faecium 180; Entercoccus faecium 180): 0.125 µg/mL (≈ 0.0704 µM); MIC (Entercoccus faecium 2041; Entercoccus faecium 2041): ≤ 0.06 µg/mL; MIC ([14]; Enterococcus gallinarum 245): ≤ 0.06 µg/mL; MIC [17]: ≤ 0.06 µg/mL; MIC (Leuconostoc citreum; brain-heart infusion agar): 128 µg/mL (≈ 72.1 µM); MIC (Pediococcus pentosaceus; [25]): 16 µg/mL (≈ 9.02 µM); mean geometric MIC, Vancomycin Resistant Strains [19]: 0.50 µg/mL; MIC (Leuconostoc lactis; [26]): 16 µg/mL (≈ 9.02 µM); MIC ([20]; brain-heart infusion agar): 32 µg/mL (≈ 18 µM); MIC [21, 27]: 16 µg/mL (≈ 9.02 µM)
CNC(CC(C)C)C(=O)NC1C(=O)NC(CC(N)=O)C(=O)NC2C(=O)NC3C(=O)NC(C(=O)NC(C(=O)O)c4cc(O)cc(O)c4-c4cc3ccc4O)C(OC3CC(C)(N)C(O)C(C)O3)c3ccc(c(Cl)c3)Oc3cc2cc(c3OC2OC(CO)C(O)C(O)C2OC2CC(C)(NCc3ccc(OCc4ccccc4)cc3)C(O)C(C)O2)Oc2ccc(cc2Cl)C1O (centres unmarked) [Compound 5] | 0.039 | ≤ 0.06 | 1 (≈ 0.559 µM) | 1 (≈ 0.559 µM) | ≤ 0.06 | ≤ 0.06 | 0.5 (≈ 0.28 µM) | 0.5 (≈ 0.28 µM) | 1 (≈ 0.559 µM) | ≤ 0.06 | 0.5 (≈ 0.28 µM) | – | ≤ 0.06 | 2.8 (≈ 1.57 µM) | 0.13 | > 64 | 1 (≈ 0.559 µM) | ≤ 0.06 | 2 (≈ 1.12 µM) | 0.036 | mean geometric MIC, Vancomycin Sensitive Strains [13]: 0.072 µg/mL; MIC (Lactobacillus confusus; [24]): 16 µg/mL (≈ 8.95 µM); MIC (Entercoccus faecium 180; Entercoccus faecium 180): ≤ 0.06 µg/mL; MIC (Entercoccus faecium 2041; Entercoccus faecium 2041): ≤ 0.06 µg/mL; MIC ([14]; Enterococcus gallinarum 245): ≤ 0.06 µg/mL; MIC (Leuconostoc citreum; brain-heart infusion agar): 64 µg/mL (≈ 35.8 µM); MIC (Pediococcus pentosaceus; [25]): 8.0 µg/mL (≈ 4.47 µM); mean geometric MIC, Vancomycin Resistant Strains [19]: 0.50 µg/mL; MIC (Leuconostoc lactis; [26]): 8.0 µg/mL (≈ 4.47 µM); MIC ([20]; brain-heart infusion agar): 16 µg/mL (≈ 8.95 µM); MIC [21, 27]: 8 µg/mL (≈ 4.47 µM)
CN[C@H](CC(C)C)C(=O)N[C@H]1C(=O)N[C@@H](CC(N)=O)C(=O)N[C@H]2C(=O)N[C@H]3C(=O)N[C@H](C(=O)N[C@H](C(=O)O)c4cc(O)cc(O)c4-c4cc3ccc4O)[C@H](O)c3ccc(c(Cl)c3)Oc3cc2cc(c3O[C@@H]2O[C@H](CO)[C@@H](O)[C@H](O)[C@H]2O[C@H]2C[C@](C)(N)[C@H](O)[C@H](C)O2)Oc2ccc(cc2Cl)[C@H]1O [vancomycin, reference compound] | 0.8 | – | – | – | – | 0.125 (≈ 0.0863 µM) | – | – | – | – | – | 0.125 (≈ 0.0863 µM) | – | – | 1.2 | > 64 | 8 (≈ 5.52 µM) | 0.25 (≈ 0.173 µM) | 16 (≈ 11 µM) | 1.1 | MIC (Pediococcus acidilacti; Pediococcus): 891 µg/mL (≈ 615 µM); MIC ([13]; 24 h, read-out: mean geometric MIC, Vancomycin Sensitive Strains): 3.9 µg/mL (≈ 2.69 µM); MIC (Lactobacillus confusus; Weissella confusa): 1020 µg/mL (≈ 707 µM); MIC (Entercoccus faecium 180): > 64 µg/mL; MIC (Entercoccus faecium 2041): 2 µg/mL (≈ 1.38 µM); MIC ([14]; Enterococcus gallinarum, GALLINARUM): 4 µg/mL (≈ 2.76 µM); MIC [22]: > 64 µg/mL; MIC [17]: 16 µg/mL (≈ 11 µM); MIC (Leuconostoc citreum): > 1020 µg/mL; MIC (Pediococcus pentosaceus; Pediococcus pentosaceus): 1020 µg/mL (≈ 707 µM); MIC ([19]; 24 h, read-out: mean geometric MIC, Vancomycin Resistant Strains): 282 µg/mL (≈ 195 µM); MIC (Leuconostoc lactis; Leuconostoc lactis): 1020 µg/mL (≈ 707 µM); MIC [20]: > 1020 µg/mL; MIC ([21]; Leuconostoc mesenteroides): 1020 µg/mL (≈ 707 µM)
